In ChEMBL document CHEMBL5113532, “Design and Characterization of a Natural Arf-GEFs Inhibitor Prodrug CHNQD-01255 with Potent Anti-Hepatocellular Carcinoma Efficacy In Vivo” (J Med Chem, 2022):

What was measured:
[1] = Renal toxicity in ICR mouse assessed as change in blood UA level at 45 mg/kg, po by biochemical assay; assay type: organism-based; details: in vivo
[2] = Solubility of the compound in saline/PEG400 (80/20% V/V) at pH 7.4; assay type: physicochemical
[3] = Toxicity in ICR mouse assessed as mortality at 45 mg/kg, po qd measured for 14 days; assay type: organism-based; details: in vivo, 336 h, time 14 day
[4] = Toxicity in ICR mouse assessed as effect on liver at 45 mg/kg, po measured after 2 weeks by H and E staining based analysis; assay type: organism-based; details: in vivo, 336 h
[5] = Drug distribution in ICR mouse lung at 100 mg/kg, ip measured upto 0.5 hrs by UPLC-MS/MS analysis; assay type: ADME, organism-based; details: in vivo
[6] = Drug elimination in ICR mouse kidney at 100 mg/kg, ip measured for 1.5 hrs by UPLC-MS/MS analysis; assay type: ADME, organism-based; details: in vivo
[7] = Stability of the compound at 4 to 60 degree C measured of 5 days by HPLC analysis; assay type: physicochemical; details: 120 h; time 5 day
[8] = Hepatotoxicity in ICR mouse assessed as change in blood ALT level at 45 mg/kg, po by biochemical assay; assay type: toxicity, organism-based; details: in vivo
[9] = Drug elimination in ICR mouse liver at 100 mg/kg, ip measured for 1.5 hrs by UPLC-MS/MS analysis; assay type: ADME, organism-based; details: in vivo
[10] = Hepatotoxicity in ICR mouse assessed as change in blood AST level at 45 mg/kg, po by biochemical assay; assay type: toxicity, organism-based; details: in vivo
[11] = Half life in ICR mouse at 45 mg/kg, po measured after 0.083 to 12 hrs by UPLC-MS/MS analysis; assay type: ADME, organism-based; details: in vivo, time 0.083-12 hrs
[12] = Toxicity in BALB/c mouse xenografted with human HepG2 cells assessed as change in body weight at 15 to 45 mg/kg, po qd at 45 mg/kg, po treated daily for 21 days measured every 3 days for 21 days; assay type: organism-based; details: in vivo, 504 h, dose 15-45 mg/kg, time 21 day
[13] = Renal toxicity in ICR mouse assessed as change in blood UREA level at 45 mg/kg, po by biochemical assay; assay type: organism-based; details: in vivo
[14] = Renal toxicity in ICR mouse assessed as change in blood CREA level at 45 mg/kg, po by biochemical assay; assay type: organism-based; details: in vivo
[15] = Oral bioavailability in ICR mouse at 45 mg/kg measured after 0.083 to 12 hrs by UPLC-MS/MS analysis; assay type: ADME, organism-based; details: in vivo, time 0.083-12 hrs
[16] = Toxicity in ICR mouse assessed as mortality at 100 mg/kg, ip qd measured for 14 days; assay type: organism-based; details: in vivo, 336 h, time 14 day
[17] = Solubility of the compound in 0.9% NaCl at pH 7.4; assay type: physicochemical
HepG2 [18] = assay: Antiproliferative activity against human HepG2 cells by MTT assay; assay type: functional, cell-based
HepG2 [19] = assay: Antitumor activity against human HepG2 cells xenografted in BALB/c nude mouse assessed as tumor growth inhibition at 1 mg/kg, iv qd administered daily for 21 consecutive days and measured every 3 days upto 21 days relative to control; assay type: functional; details: HepG2, 504 h, time <= 21 day, read-out: TGI
[20] = Toxicity in ICR mouse assessed as change in body weight at 45 mg/kg, po qd measured for 14 days; assay type: organism-based; details: in vivo, 336 h, time 14 day
[21] = Toxicity in ICR mouse assessed as effect on kidney at 45 mg/kg, po measured after 2 weeks by H and E staining based analysis; assay type: organism-based; details: in vivo, 336 h
HepG2 [22] = assay: Antitumor activity against human HepG2 cells xenografted in BALB/c nude mouse assessed as tumor growth inhibition at 45 mg/kg, po qd administered daily for 21 consecutive days and measured every 3 days upto 21 days relative to control; assay type: functional; details: HepG2, 504 h, time <= 21 day, read-out: TGI
[23] = Drug elimination in ICR mouse lung at 100 mg/kg, ip measured for 1.5 hrs by UPLC-MS/MS analysis; assay type: ADME, organism-based; details: in vivo
[24] = Toxicity in ICR mouse assessed as effect on lung at 45 mg/kg, po measured after 2 weeks by H and E staining based analysis; assay type: organism-based; details: in vivo, 336 h
[25] = Drug elimination in ICR mouse duodenum at 100 mg/kg, ip measured for 1.5 hrs by UPLC-MS/MS analysis; assay type: ADME, organism-based; details: in vivo
[26] = Drug elimination in ICR mouse spleen at 100 mg/kg, ip measured for 1.5 hrs by UPLC-MS/MS analysis; assay type: ADME, organism-based; details: in vivo
[27] = Toxicity in ICR mouse assessed as effect on spleen at 45 mg/kg, po measured after 2 weeks by H and E staining based analysis; assay type: organism-based; details: in vivo, 336 h
[28] = Solubility of the compound in PBS/DMSO (95/5% V/V) at pH 7.2 to 7.4; assay type: physicochemical
[29] = Drug elimination in ICR mouse heart at 100 mg/kg, ip measured for 1.5 hrs by UPLC-MS/MS analysis; assay type: ADME, organism-based; details: in vivo
[30] = Solubility of the compound in saline/solutol HS-15 (95/5% V/V) at pH 7.4; assay type: physicochemical
[31] = Toxicity in ICR mouse assessed as effect on heart at 45 mg/kg, po measured after 2 weeks by H and E staining based analysis; assay type: organism-based; details: in vivo, 336 h
[32] = Stability of the compound in PBS at pH 4 to 9 measured at 25 degree C measured of 7 days by HPLC analysis; assay type: physicochemical; details: buffer, pH 4, 168 h; time 7 day
[33] = Drug distribution in ICR mouse duodenum at 100 mg/kg, ip measured upto 0.5 hrs by UPLC-MS/MS analysis; assay type: ADME, organism-based; details: in vivo
[34] = Toxicity in BALB/c mouse xenografted with human HepG2 cells assessed as change in body weight at 1 to 9 mg/kg, iv qd at 45 mg/kg, po treated daily for 21 days measured every 3 days upto 21 days; assay type: organism-based; details: in vivo, 504 h, dose 1-9 mg/kg, time < 21 day
[35] = Renal toxicity in ICR mouse assessed as change in blood CK level at 45 mg/kg, po by biochemical assay; assay type: organism-based; details: in vivo
[36] = Solubility of the compound in saline/DMSO (95/5% V/V) at pH 7.4; assay type: physicochemical
[37] = Renal toxicity in ICR mouse assessed as change in blood BUN level at 45 mg/kg, po by biochemical assay; assay type: organism-based; details: in vivo
[38] = AUC (0 to t) in ICR mouse at 45 mg/kg, po measured after 0.083 to 12 hrs by UPLC-MS/MS analysis; assay type: ADME, organism-based; design: dose 45 mg/kg, time upper 12 hrs, time lower 0.083 hrs, route po; details: in vivo
[39] = Apparent volume of distribution in ICR mouse at 45 mg/kg, po measured after 0.083 to 12 hrs by UPLC-MS/MS analysis; assay type: ADME, organism-based; details: in vivo, time 0.083-12 hrs
HepG2 [40] = assay: Antitumor activity against human HepG2 cells xenografted in BALB/c nude mouse assessed as tumor growth inhibition at 9 mg/kg, iv qd administered daily for 21 consecutive days and measured every 3 days upto 21 days relative to control; assay type: functional; details: HepG2, 504 h, time <= 21 day, read-out: TGI
[41] = Drug distribution in ICR mouse heart at 100 mg/kg, ip measured upto 0.5 hrs by UPLC-MS/MS analysis; assay type: ADME, organism-based; details: in vivo

C[C@H]1CCC/C=C/[C@@H]2C[C@H](OC(=O)OCc3cccnc3)C[C@H]2[C@H](O)/C=C/C(=O)O1
52.9 ng·h/mL: AUC(0-t) [38]
1000 µg/mL: solubility [30]
7.35 h: half-life [11]
< 1000 µg/mL: solubility [2] | solubility [17] | solubility [28] | solubility [36]
48.3%: inhibition in vivo at 9 mg/kg (HepG2 [40])
2.26%: bioavailability [15]
36.6%: inhibition in vivo at 1 mg/kg (HepG2 [19])
100 nM: IC50 (HepG2 [18])
Active: Drug uptake [5] | Drug excretion [6] | Drug excretion [9] | Drug excretion [23] | Drug excretion [25] | Drug excretion [26] | Drug excretion [29] | Drug uptake [33] | Drug uptake [41]
Stable: Stability [7] | Stability [32]
6339.7436 L/kg: Vz [39]
61%: inhibition in vivo at 45 mg/kg (HepG2 [22])
Non-Toxic: Activity [1] | Activity [3] | Activity [4] | Activity [8] | Activity [10] | Activity [12] | Activity [13] | Activity [14] | Activity [16] | Activity [20] | Activity [21] | Activity [24] | Activity [27] | Activity [31] | Activity [34] | Activity [35] | Activity [37]
